# Measured values reported in the supplement of paper PMC11451515.
# Test system: P12-Ichikawa
# Assay: cell viability relative to DMSO control; higher = less cytotoxic
# Details: 48 h
# Method in brief: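 Viability, reported as a per-plate percentage of DMSO wells with cell-free wells as background, came from CellTiter-Glo One luminescence. Reading took place after 48 h at 37°C. Before that, NOMO1 or SEM (500 cells/well) or P12-Ichikawa (1000 cells/well) leukemia cells, adapted for at least four passages in each medium, were seeded in 1536-well plates (5 μl) and pin-dosed with library compounds in DMSO, 47 μM to 0.79 nM over 11 threefold points.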
# [1] = HPLM + 10% dialyzed FBS, 0.000781 µM
# [2] = HPLM + 10% dialyzed FBS, 0.00234 µM
# [3] = HPLM + 10% dialyzed FBS, 0.00702 µM
# [4] = HPLM + 10% dialyzed FBS, 0.0211 µM
# [5] = HPLM + 10% dialyzed FBS, 0.0632 µM
# [6] = HPLM + 10% dialyzed FBS, 0.19 µM
# [7] = HPLM + 10% dialyzed FBS, 0.569 µM
# [8] = HPLM + 10% dialyzed FBS, 1.71 µM
# [9] = HPLM + 10% dialyzed FBS, 5.12 µM
# [10] = HPLM + 10% dialyzed FBS, 15.4 µM
# [11] = HPLM + 10% dialyzed FBS, 46.1 µM
# [12] = RPMI 5 mM glucose + 10% FBS, 0.000781 µM
# [13] = RPMI 5 mM glucose + 10% FBS, 0.00234 µM
# [14] = RPMI 5 mM glucose + 10% FBS, 0.00702 µM
# [15] = RPMI 5 mM glucose + 10% FBS, 0.0211 µM
# [16] = RPMI 5 mM glucose + 10% FBS, 0.0632 µM
# [17] = RPMI 5 mM glucose + 10% FBS, 0.19 µM
# [18] = RPMI 5 mM glucose + 10% FBS, 0.569 µM
# [19] = RPMI 5 mM glucose + 10% FBS, 1.71 µM
# [20] = RPMI 5 mM glucose + 10% FBS, 5.12 µM
# [21] = RPMI 5 mM glucose + 10% FBS, 15.4 µM
# [22] = RPMI 5 mM glucose + 10% FBS, 46.1 µM
# [23] = RPMI 5 mM glucose + 10% dialyzed FBS, 0.000781 µM
# [24] = RPMI 5 mM glucose + 10% dialyzed FBS, 0.00234 µM
# [25] = RPMI 5 mM glucose + 10% dialyzed FBS, 0.00702 µM
# [26] = RPMI 5 mM glucose + 10% dialyzed FBS, 0.0211 µM
# [27] = RPMI 5 mM glucose + 10% dialyzed FBS, 0.0632 µM
# [28] = RPMI 5 mM glucose + 10% dialyzed FBS, 0.19 µM
# [29] = RPMI 5 mM glucose + 10% dialyzed FBS, 0.569 µM
# [30] = RPMI 5 mM glucose + 10% dialyzed FBS, 1.71 µM
# [31] = RPMI 5 mM glucose + 10% dialyzed FBS, 5.12 µM
# [32] = RPMI 5 mM glucose + 10% dialyzed FBS, 15.4 µM
# [33] = RPMI 5 mM glucose + 10% dialyzed FBS, 46.1 µM
SMILES,cell viability [1],cell viability [2],cell viability [3],cell viability [4],cell viability [5],cell viability [6],cell viability [7],cell viability [8],cell viability [9],cell viability [10],cell viability [11],cell viability [12],cell viability [13],cell viability [14],cell viability [15],cell viability [16],cell viability [17],cell viability [18],cell viability [19],cell viability [20],cell viability [21],cell viability [22],cell viability [23],cell viability [24],cell viability [25],cell viability [26],cell viability [27],cell viability [28],cell viability [29],cell viability [30],cell viability [31],cell viability [32],cell viability [33]
C/C=C(/C)C(=O)O[C@H]1C(C)=C[C@]23C(=O)[C@@H](C=C(CO)[C@@H](O)[C@]12O)[C@H]1[C@@H](C[C@H]3C)C1(C)C,111%,122%,106%,99.1%,96.8%,90.6%,87%,97.2%,97.3%,79.7%,81.4%,122%,131%,99.8%,87.9%,79.7%,79.2%,82.3%,82.4%,78.2%,77.8%,74.9%,116%,122%,101%,94.6%,89.9%,81.6%,79%,82.6%,86.7%,81.1%,70.6%
CN[C@@H]1[C@H](O)[C@H](NC)[C@H]2O[C@@]3(O)C(=O)C[C@@H](C)O[C@H]3O[C@@H]2[C@H]1O,118%,117%,124%,115%,118%,116%,114%,111%,114%,101%,98.4%,109%,117%,126%,120%,117%,113%,105%,106%,106%,105%,97.5%,122%,121%,115%,116%,106%,116%,117%,106%,114%,107%,101%
O=C(Nc1c(Cl)cncc1Cl)c1ccc(OC(F)F)c(OCC2CC2)c1,101%,112%,118%,105%,114%,113%,111%,115%,117%,108%,104%,103%,116%,111%,115%,122%,121%,119%,106%,110%,106%,106%,96.8%,107%,100%,108%,106%,108%,114%,111%,113%,109%,105%
C#C[C@]1(O)CC[C@H]2[C@@H]3CCc4cc(O)ccc4[C@H]3CC[C@@]21C,102%,98.3%,95.9%,97.4%,95.7%,102%,89.5%,97.3%,95.8%,75.3%,47.2%,98.3%,95.6%,89.4%,93.6%,92.3%,94.3%,96.7%,83.7%,89.1%,67.7%,42.6%,87.5%,86.7%,88.9%,92.3%,93.3%,92.4%,95.6%,85.6%,81.8%,72.5%,58.3%
C[C@@]12C[C@@]3(O)O[C@@H](O1)[C@]1(COC(=O)c4ccccc4)[C@H]3C[C@@]12O[C@@H]1O[C@H](CO)[C@@H](O)[C@H](O)[C@H]1O,91.3%,96%,103%,100%,110%,99.5%,103%,108%,109%,97.5%,76.7%,94.9%,99.4%,111%,111%,118%,105%,108%,116%,118%,113%,112%,89.8%,95.4%,103%,110%,105%,97.4%,108%,104%,103%,110%,101%
OC[C@H]1OCC(O1)[N@@]2C=CC(N)=NC2=O (stereo not given in full),121%,118%,113%,121%,112%,118%,117%,107%,115%,108%,115%,108%,125%,117%,118%,118%,117%,118%,107%,104%,101%,103%,116%,121%,115%,109%,114%,113%,109%,106%,105%,104%,105%
COc1ccc(C(C)=O)c(O)c1,100%,106%,115%,109%,109%,114%,117%,102%,107%,24%,31%,115%,115%,106%,120%,128%,117%,114%,112%,116%,22%,30.6%,103%,109%,109%,104%,110%,114%,114%,99.9%,110%,25.8%,25.4%
CSCC[C@@H](NC(=O)[C@@H](Cc1ccccc1)NC(=O)CNC(=O)CNC(=O)[C@@H](N)Cc1ccc(O)cc1)C(=O)O,84.4%,96.7%,105%,11%,113%,102%,112%,104%,105%,120%,115%,82.2%,91.9%,101%,12.6%,107%,105%,104%,111%,99.8%,101%,102%,85.1%,88.1%,94.1%,24.3%,101%,98.7%,104%,101%,102%,97.9%,109%
S=P(N1CC1)(N1CC1)N1CC1,110%,106%,113%,107%,112%,105%,108%,97.4%,88.5%,99.4%,85.3%,98.3%,99%,106%,102%,99.8%,102%,108%,104%,104%,94.9%,88.2%,99.6%,108%,103%,91.7%,101%,101%,96.2%,93.1%,86.9%,89.9%,76.3%
CCOC(=O)C/1=C(O)/C(=O)N(CC2=CC=CC=C2)C1,114%,114%,114%,112%,111%,113%,109%,109%,99.1%,99.8%,100%,116%,121%,115%,119%,128%,120%,106%,122%,114%,106%,99.5%,107%,109%,123%,111%,113%,111%,120%,106%,114%,107%,99.2%
O=C(O)C1=NC(C(=O)O)CC(/C=C/N2c3cc(O)c(OC4OC(CO)C(O)C(O)C4O)cc3CC2C(=O)O)=C1 (stereo not given),104%,107%,104%,96.9%,98.5%,104%,106%,102%,96.8%,98%,98.4%,97.2%,110%,106%,99.1%,95.8%,89.9%,90.8%,106%,96.5%,96.8%,97.4%,101%,99.2%,106%,102%,106%,104%,93.2%,99.5%,100%,91.9%,90.9%
OC1CCC(Nc2ncc3nc(Nc4c(F)cc(F)cc4F)n([C@@H]4CCOC4)c3n2)CC1 (stereo not given in full),111%,114%,115%,117%,119%,126%,127%,124%,120%,117%,114%,113%,123%,114%,119%,127%,122%,134%,127%,120%,118%,123%,111%,117%,114%,120%,117%,117%,127%,119%,126%,121%,114%
CN(NC(=O)CC(=O)NN(C)C(=S)c1ccccc1)C(=S)c1ccccc1,90.7%,88.6%,91.7%,88.1%,58.8%,31.4%,4.03%,3.29%,3.87%,4.02%,38.3%,75.8%,86.9%,86.6%,90.8%,56.8%,24.1%,2.71%,2.73%,3.65%,3.06%,42.1%,92.4%,89.9%,102%,101%,58.4%,20.1%,3.2%,2.92%,3.18%,3.13%,31.3%
O=C(Nc1ccc(F)c(C(F)(F)F)c1)Nc1nnc(-c2ccncc2)s1,125%,121%,119%,115%,129%,112%,120%,115%,119%,111%,100%,113%,127%,125%,109%,112%,114%,114%,118%,113%,111%,99.5%,115%,121%,129%,113%,123%,120%,127%,115%,114%,106%,113%
CC1(C)O[C@@H]2C[C@H]3[C@@H]4CCC5=CC(=O)C=C[C@]5(C)[C@H]4[C@@H](O)C[C@]3(C)[C@]2(C(=O)CO)O1,100%,104%,106%,91.8%,93%,90.2%,70.7%,64%,66%,65.2%,62.9%,90.3%,100%,107%,106%,82.4%,76.3%,59.2%,53%,52%,50.4%,51.5%,90.2%,98.8%,97.8%,92.4%,76.6%,72.8%,56.6%,49.8%,45.4%,40.9%,42.1%
